Measurements: patent US20080171051A1, “Cancer Treatment” (priority 2003, published 2008)

Key:
[1] = adjuvant setting of colorectal cancer; cited from earlier work
HLacZ cell line = assay: Flow cytometric analysis of apoptosis, HLacZ control cell line; type: cell-based, human; settings: 5 μM 5-FU for 72 hours
Method: (§1) Generation of c-FLIP overexpressing cell lines. c-FLIPL and c-FLIPS coding regions were PCR amplified and ligated into the pcDNA/V5-His TOPO vector according to the manufacturer's instructions (Life Technologies Inc.). HCT116p53^+/+ cells were co-transfected with 10 μg of each c-FLIP expression construct and 1 μg of a construct expressing a puromycin resistance gene (pIRESpuro3, Clontech) using GeneJuice. Stably transfected HCT116 cells were selected and maintained in medium supplemented with 1 μg/ml puromycin (Life Technologies Inc.). Stable overexpression of c-FLIP was assessed by Western blot analysis.
(§2) Flow Cytometric Analysis. Cells were seeded at 1×10^5 per well of a 6-well tissue culture plate. […] DNA content of harvested cells was evaluated after propidium iodide staining of cells using the EPICS XL Flow Cytometer (Coulter, Miami, Fla.).

Fas = assay: Western blot analysis of Fas expression in MCF-7 cells; type: cell-based; settings: 72 hours after IC60 dose
Method: (§3) Western Blotting. Western blots were performed as previously described (Longley et al., 2002). The Fas/CD95, Bcl-2 and BID (Santa Cruz Biotechnology, Santa Cruz, Calif.), caspase 8 (Oncogene Research Products, Darmstadt, Germany), PARP (Pharmingen, BD Biosciences, Oxford, England), c-FLIP (NF-6, Alexis, Bingham UK) DcR3 (Imgenex, San Diego, Calif.) mouse monoclonal antibodies were used in conjunction with a horseradish peroxidase (HRP)-conjugated sheep anti-mouse secondary antibody (Amersham, Little Chalfont, Buckinghamshire, England). FasL rabbit polyclonal antibody (Santa Cruz Biotechnology) was used in conjunction with an HRP-conjugated donkey anti-rabbit secondary antibody (Amersham). Equal loading was assessed using a β-tubulin mouse monoclonal primary antibody (Sigma).

HFL17 cells = assay: Flow cytometric analysis of apoptosis, HFL17 cells (c-FLIPL-overexpressing HCT116); type: cell-based, human; settings: 5 μM 5-FU for 72 hours
Method: as §1, §2

HCT116p53+/+ cells [2] = assay: MTT cell viability assay, HCT116 p53 wild type cells; type: cell-based, human; settings: for IC60(72h) dose: HCT116p53+/+ cells; for synergy with CH-11 (RI from MTT): HCT116 p53 wild-type, drug 24 hours then CH-11 200 ng/ml for 48 hours; for effect on cell viability: HCT116 cells, presence or absence of drug
Method: (§4) Cell Viability Assays. […] To investigate drug-induced Fas-mediated apoptosis, cells were seeded at 2,000-5,000 cells per well on 96-well plates. […] To assess chemotherapy/siRNA interactions, 20,000-50,000 cells were seeded per well on 24-well plates. Twenty-four hours later, the cells were transfected with FLIP-targeted (FT) or scrambled siRNA (SC). […] MTT (0.5 mg/ml) was added to each well and the cells were incubated at 37° C. for a further 2 hours. The culture medium was removed and formazan crystals reabsorbed in 200 μl (96-well) or 1 ml (24-well) DMSO. Cell viability was determined by reading the absorbance of each well at 570 nm using a microplate reader (Molecular Devices, Wokingham, England).
(§5) siRNA transfections. FLIP-targeted siRNA was designed using the Ambion siRNA target finder and design tool (www.ambion.com/techlib/misc/siRNA_finder.html) to inhibit both splice variants of c-FLIP. Both c-FLIP-targeted (FT) and scrambled control (SC) siRNA were obtained from Xeragon (Germantown, Md.).
(§6) Statistical Analyses. The nature of the interaction between the chemotherapeutic drugs and FLIP-targeted siRNAs was determined by calculating the combination index (CI) according to the method of Chou and Talalay (14). CI values were calculated from isobolograms generated using the CalcuSyn software programme (Microsoft Windows). […] An unpaired two-tailed t test was used to determine the significance of changes in levels of apoptosis between different treatment groups.

HFL24 cells = assay: Flow cytometric analysis of apoptosis, HFL24 cells (c-FLIPL-overexpressing HCT116); type: cell-based, human; settings: 5 μM 5-FU for 72 hours
Method: as §1, §2

[3] = patients with metastatic colorectal cancer; cited from earlier work
HCT116p53-/- cells [4] = assay: MTT cell viability assay, HCT116 p53 null cells; type: cell-based, human; settings: for synergy with CH-11 (RI from MTT): HCT116 p53 null, drug 24 hours then CH-11 200 ng/ml for 48 hours
Method: as §4, §5, §6

HCT116p53-/- cells [5] = assay: Flow cytometric analysis of apoptosis, HCT116p53-/- cells; type: cell-based, human; settings: for cells in the sub-G0/G1 fraction (apoptosis): HCT116p53-/- cells, 1 nM siRNA, no drug, 5 μM 5-FU, 5 μM oxaliplatin or 1 μM CPT-11, 72 hours
Method: as §2
(§7) siRNA transfections. FLIP-targeted siRNA was designed using the Ambion siRNA target finder and design tool (www.ambion.com/techlib/misc/siRNA_finder.html) to inhibit both splice variants of c-FLIP. Both c-FLIP-targeted (FT) and scrambled control (SC) siRNA were obtained from Xeragon (Germantown, Md.). The FT siRNA sequence used was: […]. The FL siRNA sequence used was: […]. The control non-silencing siRNA sequence (SC) used was: […]. siRNA transfections were performed on sub-confluent cells incubated in Optimem medium using the oligofectamine reagent (both from Life Technologies Inc) according to the manufacturer's instructions.

[6] = test system: c-FLIPL-overexpressing HCT116p53+/+ cell lines (HFL17, HFL24); assay: Growth inhibition (MTT) in c-FLIPL-overexpressing HCT116p53+/+ cell lines versus HLacZ; type: cell-based, human
Method: as §4

HCT116p53+/+ cells [7] = assay: Flow cytometric analysis of apoptosis, HCT116p53+/+ cells; type: cell-based, human; settings: for cells in the sub-G0/G1 apoptotic fraction: 0.5 nM siRNA, no drug, 5 μM 5-FU or 1 μM oxaliplatin for 48 hours
Method: as §2, §7

c-FLIP [8] = assay: Western blot of c-FLIP expression after siRNA transfection, HCT116p53+/+ cells; type: cell-based, human; settings: for down-regulation of c-FLIP expression: nanomolar concentrations
Method: as §3
siRNA transfections. FLIP-targeted siRNA was designed using the Ambion siRNA target finder and design tool (www.ambion.com/techlib/misc/siRNA_finder.html) to inhibit both splice variants of c-FLIP. Both c-FLIP-targeted (FT) and scrambled control (SC) siRNA were obtained from Xeragon (Germantown, Md.). The FT siRNA sequence used was: AAGCAGTCTGTTCAAGGAGCA. The FL siRNA sequence used was: AAGGAACAGCTTGGCGCTCAA. The control non-silencing siRNA sequence (SC) used was: AATTCTCCGAACGTGTCACGT. siRNA transfections were performed on sub-confluent cells incubated in Optimem medium using the oligofectamine reagent (both from Life Technologies Inc) according to the manufacturer's instructions.

c-FLIP [9] = assay: Western blot of c-FLIP expression after siRNA transfection, H630 cells; type: cell-based; settings: 1 nM, 24 hours
Method: as §3
(§8) siRNA transfections. FLIP-targeted siRNA was designed using the Ambion siRNA target finder and design tool (www.ambion.com/techlib/misc/siRNA_finder.html) to inhibit both splice variants of c-FLIP. Both c-FLIP-targeted (FT) and scrambled control (SC) siRNA were obtained from Xeragon (Germantown, Md.). The FT siRNA sequence used was: AAGCAGTCTGTTCAAGGAGCA. The FL siRNA sequence used was: AAGGAACAGCTTGGCGCTCAA. […]

RKO cells = assay: MTT cell viability assay, RKO cells; type: cell-based; settings: absence of chemotherapy, read-out: IC50(72h) dose
Method: as §4, §5
(§9) Statistical Analyses. The nature of the interaction between the chemotherapeutic drugs and FLIP-targeted siRNAs was determined by calculating the combination index (CI) according to the method of Chou and Talalay (14). CI values were calculated from isobolograms generated using the CalcuSyn software programme (Microsoft Windows). […]

c-FLIP [10] = assay: Western blot of c-FLIP expression after siRNA transfection, RKO cells; type: cell-based; settings: 1 nM, 24 hours
Method: as §3, §8

c-FLIP [11] = assay: Western blot of c-FLIP expression after siRNA transfection, HCT116p53-/- cells; type: cell-based, human; settings: 1 nM FT siRNA
Method: as §3, §8

c-FLIP [12] = assay: Western blot of c-FLIP expression after siRNA transfection, MCF-7 cells; type: cell-based; settings: 10 nM FT siRNA
Method: as §3, §8

H630 cells = assay: MTT cell viability assay, H630 cells; type: cell-based; settings: absence of chemotherapy, read-out: IC50(72h) dose
Method: as §4, §5, §9

MCF-7 cells = type: cell-based; settings: alone or in combination with 5-FU (data not shown)
Method: Cell Viability Assays. […] To assess chemotherapy/siRNA interactions, 20,000-50,000 cells were seeded per well on 24-well plates. Twenty-four hours later, the cells were transfected with FLIP-targeted (FT) or scrambled siRNA (SC). Four hours after transfection, the cells were treated with a range of concentrations of each drug for a further 72-96 hours. MTT (0.5 mg/ml) was added to each well and the cells were incubated at 37° C. for a further 2 hours. […] FLIP-targeted siRNA was designed using the Ambion siRNA target finder and design tool (www.ambion.com/techlib/misc/siRNA_finder.html) to inhibit both splice variants of c-FLIP. Both c-FLIP-targeted (FT) and scrambled control (SC) siRNA were obtained from Xeragon (Germantown, Md.). The FT siRNA sequence used was: [NT] The FL siRNA sequence used was: [NT] The control non-silencing siRNA sequence (SC) used was: [NT] siRNA transfections were performed on sub-confluent cells incubated in Optimem medium using the oligofectamine reagent (both from Life Technologies Inc) according to the manufacturer's instructions.

Fas death receptor = Fas death receptor (UniProt P25445); assay: cell-based or functional assay
Fas death receptor, sequence (P25445 26-335 limits assumed): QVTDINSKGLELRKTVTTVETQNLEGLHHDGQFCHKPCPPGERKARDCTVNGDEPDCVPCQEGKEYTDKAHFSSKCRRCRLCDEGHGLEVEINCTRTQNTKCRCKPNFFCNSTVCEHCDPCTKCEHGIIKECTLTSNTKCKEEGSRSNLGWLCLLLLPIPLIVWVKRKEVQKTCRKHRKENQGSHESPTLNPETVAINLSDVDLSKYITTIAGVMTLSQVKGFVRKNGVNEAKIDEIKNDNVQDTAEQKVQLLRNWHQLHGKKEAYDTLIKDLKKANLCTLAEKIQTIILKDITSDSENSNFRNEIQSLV

5-FU/leucovorin
3-year survival [1]: 72.9%

O=c1[nH]cc(F)c(=O)[nH]1 [5-FU]
cells in the sub-G1/G0 apoptotic fraction (HLacZ cell line): ~41% | up-regulation of Fas expression (Fas): ~12 fold | cells in the sub-G1/G0 apoptotic fraction (HFL17 cells): ~15% | IC60(72h) dose (HCT116p53+/+ cells [2]): 5000 nM | cells in the sub-G1/G0 apoptotic fraction (HFL24 cells): ~17% | response rates [3]: 10-15%

CCc1c2c(nc3ccc(OC(=O)N4CCC(N5CCCCC5)CC4)cc13)-c1cc3c(c(=O)n1C2)COC(=O)[C@]3(O)CC [CPT-11, irinotecan]
synergy with CH-11 (RI from MTT) (HCT116p53-/- cells [4]): synergy | synergy with CH-11 (RI from MTT) (HCT116p53+/+ cells [2]): significant synergy | synergy with CH-11 (propidium iodide staining) (HCT116p53-/- cells [5]; HCT116 p53 null, drug 24 hours then CH-11 50 ng/ml 24 hours): significant synergy

O=C1[O][Pt]2([NH][C@@H]3CCCC[C@H]3[NH]2)[O]C1=O [OXA, oxaliplatin]
increase in the IC50(72h) dose caused by c-FLIPL overexpression [6]: 1.7-2.0 fold | IC60(72h) dose (HCT116p53+/+ cells [2]): 1000 nM

Cc1nc2ccc(CN(C)c3ccc(C(=O)N[C@@H](CCC(=O)O)C(=O)O)s3)cc2c(=O)[nH]1 [TDX, tomudex]
synergy with CH-11 (RI from MTT) (HCT116p53-/- cells [4]): synergy | up-regulation of Fas expression (Fas): ~7 fold | synergy with CH-11 (RI from MTT) (HCT116p53+/+ cells [2]): significant synergy

FL siRNA: siRNA specifically down-regulating c-FLIPL; sequence AAGGAACAGCTTGGCGCTCAA (AAGGAACAGCTTGGCGCTCAA; listed as DNA, chemistry not given here)
apoptosis in the absence of chemotherapy (HCT116p53+/+ cells [7]; PARP cleavage and flow cytometry (data not shown)): induced apoptosis | down-regulation of c-FLIP expression (c-FLIP [8]): specifically down-regulate the long splice form without affecting expression of c-FLIPS

FT siRNA: siRNA inhibiting both splice variants of c-FLIP; sequence AAGCAGTCTGTTCAAGGAGCA (AAGCAGTCTGTTCAAGGAGCA; chemistry not given here)
down-regulation of c-FLIP protein (c-FLIP [9]): down-regulated c-FLIP protein | cells in the sub-G0/G1 apoptotic fraction (HCT116p53+/+ cells [7]): ~26% | IC50 (HCT116p53-/- cells [4]; HCT116 p53 null cells, absence of chemotherapy, read-out: IC50(72h) dose): ~2.5 nM | IC50 (RKO cells): ~5 nM | IC50 (HCT116p53+/+ cells [2]; HCT116 p53 wild type cells, absence of chemotherapy, read-out: IC50(72h) dose): ~0.7 nM | down-regulation of c-FLIP expression (c-FLIP [8]): potently down-regulated expression of both c-FLIP splice variants | time at which both c-FLIP splice forms were efficiently down-regulated (c-FLIP [8]; post-transfection, 1 and 10 nM FT siRNA): 8 h | cells in the sub-G0/G1 fraction (apoptosis) (HCT116p53-/- cells [5]): ~14% | down-regulation of c-FLIP protein (c-FLIP [10]): down-regulated c-FLIP protein | down-regulation of c-FLIP expression (c-FLIP [11]): effectively down-regulated | down-regulation of c-FLIP expression (c-FLIP [12]): potently down-regulated expression of both c-FLIP splice variants | IC50 (H630 cells): ~25 nM

SC siRNA: control non-silencing siRNA; sequence AATTCTCCGAACGTGTCACGT (AATTCTCCGAACGTGTCACGT; chemistry not given here)
cells in the sub-G0/G1 apoptotic fraction (HCT116p53+/+ cells [7]): ~9% | effect on cell viability (HCT116p53+/+ cells [2]): no significant effect on cell viability | effect on cell viability (HCT116p53+/+ cells [2]; listed as Control siRNA): no effect on cell viability | effect on cell viability (MCF-7 cells): no effect on cell viability | cells in the sub-G0/G1 fraction (apoptosis) (HCT116p53-/- cells [5]): ~9%

agonistic Fas monoclonal antibody CH-11
cells in the sub-G1/G0 apoptotic phase (flow cytometry, MCF-7, 5-FU 72 h then 250 ng/ml CH-11 24 h) (Fas death receptor): 55% | cells in the sub-G1/G0 apoptotic phase (flow cytometry, MCF-7, OXA then CH-11) (Fas death receptor): 50% | cells in the sub-G1/G0 apoptotic phase (flow cytometry, MCF-7, TDX 72 h then 250 ng/ml CH-11 24 h) (Fas death receptor): 60%
